For assay [1], the target named is T1, QPCTL (Homo sapiens (Human), UniProt Q9NXS2). The assay can be described thus: QPCTL Enzymatic Activity Assay (coupled-enzyme fluorescent assay, H-Gln-AMC substrate). Format: biochemical. Particulars: recombinant truncated human QPCTL 10-12 nM, 10 μM H-Gln-AMC; read-out: QPCTL Inhibition IC50.
Target sequence in this assay (Q9NXS2 53-382): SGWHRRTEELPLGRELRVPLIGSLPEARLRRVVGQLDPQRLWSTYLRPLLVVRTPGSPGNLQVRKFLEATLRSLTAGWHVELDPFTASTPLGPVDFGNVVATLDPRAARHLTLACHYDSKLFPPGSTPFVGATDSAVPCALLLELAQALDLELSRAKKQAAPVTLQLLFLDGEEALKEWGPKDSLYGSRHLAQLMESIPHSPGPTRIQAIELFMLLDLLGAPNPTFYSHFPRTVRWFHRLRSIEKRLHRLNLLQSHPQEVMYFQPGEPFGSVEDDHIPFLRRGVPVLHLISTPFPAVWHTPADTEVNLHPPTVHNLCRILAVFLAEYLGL
The next assay deals with QPCT (rhQPCT) (Homo sapiens (Human), UniProt Q16769). In words: QPCT Enzymatic Activity Assay (coupled-enzyme fluorescent assay, H-Gln-AMC substrate). Type of assay: biochemical. Particulars: rhQPCT 10-12 nM, 10 μM H-Gln-AMC; read-out: QPCT Inhibition IC50. An outline of the steps: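 Coupled assay: recombinant human QPCT converts H-Gln-AMC (10 μM final) to pyroglutamyl-AMC, 60 min at 37 °C, stopped by boiling; PGPEP-1 then releases AMC.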

For assay [2], the target named is T1, QPCTL. In words: Inhibition of Cellular QPCTL Activity - Imaging Assay, CC2C6 anti-CD47 staining of DLD-1 cells. As to conditions: 72 hours, CC2C6 anti-CD47 high-content imaging. Type of assay: cell-based. The method, then: Inhibition of Cellular QPCTL Activity—Imaging Assay
The cells were incubated for 72 hours at 37° C. and 5% CO2. […] After primary antibody staining, the cells were fixed with 4% paraformaldehyde in the incubation buffer for 15 minutes at room temperature. […] Cells were analyzed on a ImageXpress Pico Automated Cell Imaging System (Molecular Devices) using 10× objective (3×3 fields).
Target sequence in this assay (Q9NXS2 whole entry, the tested form may be a part): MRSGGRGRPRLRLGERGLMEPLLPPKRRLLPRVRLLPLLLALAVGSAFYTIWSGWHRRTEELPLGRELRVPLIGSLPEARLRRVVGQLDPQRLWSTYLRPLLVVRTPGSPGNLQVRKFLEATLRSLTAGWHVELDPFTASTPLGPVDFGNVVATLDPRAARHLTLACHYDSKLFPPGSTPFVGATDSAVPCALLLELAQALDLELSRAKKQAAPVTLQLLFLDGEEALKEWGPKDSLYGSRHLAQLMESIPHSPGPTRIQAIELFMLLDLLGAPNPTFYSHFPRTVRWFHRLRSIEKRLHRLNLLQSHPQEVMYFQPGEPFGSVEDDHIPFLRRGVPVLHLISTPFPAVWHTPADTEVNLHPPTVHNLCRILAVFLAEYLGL

QPCT (rhQPCT), sequence (Q16769 29-361): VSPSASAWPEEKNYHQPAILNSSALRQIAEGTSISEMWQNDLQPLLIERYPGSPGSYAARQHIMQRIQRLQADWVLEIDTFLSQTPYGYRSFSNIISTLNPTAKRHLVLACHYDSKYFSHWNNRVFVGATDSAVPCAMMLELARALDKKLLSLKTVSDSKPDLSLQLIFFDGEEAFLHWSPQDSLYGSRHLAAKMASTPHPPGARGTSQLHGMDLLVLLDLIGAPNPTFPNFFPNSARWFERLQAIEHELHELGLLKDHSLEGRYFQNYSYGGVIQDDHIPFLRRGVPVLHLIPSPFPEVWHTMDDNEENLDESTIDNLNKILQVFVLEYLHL

In the case of `Cn1cnnc1C1CCN(c2c(C#N)cccc2-c2ccc(F)cc2)CC1` [Example 96, 4′-fluoro-2-(4-(4-methyl-4H-1,2,4-triazol-3-yl)piperidin-1-yl)-[1,1′-biphenyl]-3-carbonitrile], the concentration for half-maximal inhibition (IC50) (in general, the concentration at which inhibition is half-maximal) was under 100 nM at QPCTL [1], under 100 nM on QPCT (rhQPCT) and 1000 to 10000 nM against QPCTL [2].
Take `CC(=O)c1ccc(-c2ccc(F)nc2)c(N2CCC(c3nncn3C)CC2)c1C#N` [Example 97, 6-acetyl-3-(6-fluoropyridin-3-yl)-2-(4-(4-methyl-4H-1,2,4-triazol-3-yl)piperidin-1-yl)benzonitrile]: the half-inhibitory concentration (IC50) on QPCTL [1], on QPCT (rhQPCT) and against QPCTL [2] was under 100 nM in each case.
On to `Cn1cnnc1C1CCN(c2c(-c3ccc(F)nc3)ccc(-c3ccn(C4CC4)n3)c2C#N)CC1` [Example 98, 6-(1-cyclopropyl-1H-pyrazol-3-yl)-3-(6-fluoropyridin-3-yl)-2-(4-(4-methyl-4H-1,2,4-triazol-3-yl)piperidin-1-yl)benzonitrile], for which the 50% inhibitory concentration (IC50) at QPCTL [1], on QPCT (rhQPCT) and against QPCTL [2] was under 100 nM throughout.
On to `Cn1cnnc1C1CCN(c2c(C#N)cc(C#N)cc2-c2ccc(F)nc2)CC1` [Example 100, 5-(6-fluoropyridin-3-yl)-4-(4-(4-methyl-4H-1,2,4-triazol-3-yl)piperidin-1-yl)isophthalonitrile], for which the IC50 at QPCTL [1], on QPCT (rhQPCT) and at QPCTL [2] was under 100 nM in each case.
Consider `Cn1cnnc1C1CCN(c2c(C#N)cc(S(C)(=O)=O)cc2-c2ccc(F)nc2)CC1` [Example 101, 3-(6-fluoropyridin-3-yl)-2-(4-(4-methyl-4H-1,2,4-triazol-3-yl)piperidin-1-yl)-5-(methylsulfonyl)benzonitrile], for which the half-inhibitory concentration (IC50) on QPCTL [1] is under 100 nM; at QPCT (rhQPCT), under 100 nM; on QPCTL [2], 1000 to 10000 nM.
For `Cn1cnnc1C1CCN(c2c(-c3ccc(F)nc3)cc3cn[nH]c3c2C#N)CC1` [Example 105, 5-(6-fluoropyridin-3-yl)-6-(4-(4-methyl-4H-1,2,4-triazol-3-yl)piperidin-1-yl)-1H-indazole-7-carbonitrile], the half-inhibitory concentration (IC50) at QPCTL [1] was under 100 nM; at QPCT (rhQPCT) it was under 100 nM; at QPCTL [2] it was 100 to 1000 nM.
In the case of `Cn1cnnc1N1CCN(c2c(C#N)cccc2-c2ccc(F)nc2)CC1` [Example 106, 3-(6-fluoropyridin-3-yl)-2-(4-(4-methyl-4H-1,2,4-triazol-3-yl)piperazin-1-yl)benzonitrile], the half-inhibitory concentration (IC50) on QPCTL [1], at QPCT (rhQPCT) and against QPCTL [2] was under 100 nM throughout.
As to `COc1cc(F)c(-c2ccc(F)nc2)c(N2CCC(c3nncn3C)CC2)c1C#N` [Example 107, 4-fluoro-3-(6-fluoropyridin-3-yl)-6-methoxy-2-(4-(4-methyl-4H-1,2,4-triazol-3-yl)piperidin-1-yl)benzonitrile], the 50% inhibitory concentration (IC50) at QPCTL [1], on QPCT (rhQPCT) and against QPCTL [2] was under 100 nM throughout.
On to `Cn1cnnc1C1CCN(c2c(-c3ccc(F)nc3)ccc(C3COC3)c2C#N)CC1` [Example 108, 3-(6-fluoropyridin-3-yl)-2-(4-(4-methyl-4H-1,2,4-triazol-3-yl)piperidin-1-yl)-6-(oxetan-3-yl)benzonitrile], for which the IC50 at QPCTL [1], at QPCT (rhQPCT) and at QPCTL [2] was under 100 nM in each case.
For `Cn1cnnc1C1CCN(c2c(C#N)cccc2-c2ccc(O)c(C=O)c2)CC1` [Example 109, 3′-formyl-4′-hydroxy-2-(4-(4-methyl-4H-1,2,4-triazol-3-yl)piperidin-1-yl)-[1,1′-biphenyl]-3-carbonitrile], the IC50 at QPCTL [1], on QPCT (rhQPCT) and on QPCTL [2] was under 100 nM each time.
With `Cn1cnnc1C1CCN(c2c(C#N)cccc2-c2cncc(Cl)c2)CC1` [Example 115, 3-(5-chloropyridin-3-yl)-2-(4-(4-methyl-4H-1,2,4-triazol-3-yl)piperidin-1-yl)benzonitrile], the IC50 is under 100 nM on QPCTL [1], under 100 nM on QPCT (rhQPCT) and 100 to 1000 nM on QPCTL [2].
For the compound `Cn1cnnc1C1CCN(c2c(C#N)cccc2-c2cncc(B(O)O)c2)CC1` [Example 117, (5-(3-cyano-2-(4-(4-methyl-4H-1,2,4-triazol-3-yl)piperidin-1-yl)phenyl)pyridin-3-yl)boronic acid], the IC50 on QPCTL [1], at QPCT (rhQPCT) and at QPCTL [2] was under 100 nM throughout.
In the case of `Cn1cnnc1C1CCN(c2c(C#N)cccc2-c2cncc(O)c2)CC1` [Example 120, 3-(5-hydroxypyridin-3-yl)-2-(4-(4-methyl-4H-1,2,4-triazol-3-yl)piperidin-1-yl)benzonitrile], the 50% inhibitory concentration (IC50) at QPCTL [1], on QPCT (rhQPCT) and on QPCTL [2] was under 100 nM throughout.
With `Cn1ccc(-c2ccc(-c3ccc(F)nc3)c(N3CCN(c4nncn4C)CC3)c2C#N)n1` [Example 122, 3-(6-fluoropyridin-3-yl)-6-(1-methyl-1H-pyrazol-3-yl)-2-(4-(4-methyl-4H-1,2,4-triazol-3-yl)piperazin-1-yl)benzonitrile], the IC50 on QPCTL [1], on QPCT (rhQPCT) and against QPCTL [2] was under 100 nM throughout.
For the compound `Cn1cnnc1C1CCN(c2c(C#N)cccc2-c2ccc3c(c2)COB3O)CC1` [Example 123, 3-(1-hydroxy-1,3-dihydrobenzo[c][1,2]oxaborol-5-yl)-2-(4-(4-methyl-4H-1,2,4-triazol-3-yl)piperidin-1-yl)benzonitrile], the values for the IC50 on QPCTL [1], on QPCT (rhQPCT) and against QPCTL [2] were under 100 nM, under 100 nM and 1000 to 10000 nM, respectively.
As for `Cn1ccc(-c2ccc(-c3ccc(O)c(C=O)c3)c(N3CCC(c4nncn4C)CC3)c2C#N)n1` [Example 124, 3′-formyl-4′-hydroxy-4-(1-methyl-1H-pyrazol-3-yl)-2-(4-(4-methyl-4H-1,2,4-triazol-3-yl)piperidin-1-yl)-[1,1′-biphenyl]-3-carbonitrile], the figures for the IC50 on QPCTL [1], at QPCT (rhQPCT) and against QPCTL [2] were under 100 nM, under 100 nM and 100 to 1000 nM, respectively.
Turning to `Cn1cnnc1C1CCN(c2c(-c3ccc(F)nc3)ccnc2C#N)CC1` [Example 132, 6-fluoro-3′-(4-(4-methyl-4H-1,2,4-triazol-3-yl)piperidin-1-yl)-[3,4′-bipyridine]-2′-carbonitrile], the IC50 on QPCTL [1], at QPCT (rhQPCT) and against QPCTL [2] was under 100 nM in each case.
Take `Cn1cnnc1C1CCN(c2c(C#N)ccnc2-c2ccc(F)nc2)CC1` [Example 133, 6′-fluoro-3-(4-(4-methyl-4H-1,2,4-triazol-3-yl)piperidin-1-yl)-[2,3′-bipyridine]-4-carbonitrile]: the 50% inhibitory concentration (IC50) on QPCTL [1], at QPCT (rhQPCT) and on QPCTL [2] was under 100 nM throughout.

The values are drawn from US20240101544A1, “INHIBITORS OF QPCTL AND QPCT” (priority 2022, published 2024).
